Laboratory results taken from article PMC3493529, “Molecular and Pharmacological Characterization of Serotonin 5-HT2α and 5-HT7 Receptors in the Salivary Glands of the Blowfly Calliphora vicina” (PLoS ONE, 2012).
pEC50, pIC50: −log10 of the molar value. Read-outs that look alike come from different tables or passages of the source.

Key:
Cv5-HT7 [1] = target: T1, Cv5-HT7 (Calliphora vicina, UniProt I7IA71); test: Direct cAMP quantification (cAMP-Screen System) in Cv5-HT7-expressing cells; type: cell-based; conditions: 1 µM biogenic amine; 100 µM IBMX
T1 sequence (I7IA71 entry or part of it): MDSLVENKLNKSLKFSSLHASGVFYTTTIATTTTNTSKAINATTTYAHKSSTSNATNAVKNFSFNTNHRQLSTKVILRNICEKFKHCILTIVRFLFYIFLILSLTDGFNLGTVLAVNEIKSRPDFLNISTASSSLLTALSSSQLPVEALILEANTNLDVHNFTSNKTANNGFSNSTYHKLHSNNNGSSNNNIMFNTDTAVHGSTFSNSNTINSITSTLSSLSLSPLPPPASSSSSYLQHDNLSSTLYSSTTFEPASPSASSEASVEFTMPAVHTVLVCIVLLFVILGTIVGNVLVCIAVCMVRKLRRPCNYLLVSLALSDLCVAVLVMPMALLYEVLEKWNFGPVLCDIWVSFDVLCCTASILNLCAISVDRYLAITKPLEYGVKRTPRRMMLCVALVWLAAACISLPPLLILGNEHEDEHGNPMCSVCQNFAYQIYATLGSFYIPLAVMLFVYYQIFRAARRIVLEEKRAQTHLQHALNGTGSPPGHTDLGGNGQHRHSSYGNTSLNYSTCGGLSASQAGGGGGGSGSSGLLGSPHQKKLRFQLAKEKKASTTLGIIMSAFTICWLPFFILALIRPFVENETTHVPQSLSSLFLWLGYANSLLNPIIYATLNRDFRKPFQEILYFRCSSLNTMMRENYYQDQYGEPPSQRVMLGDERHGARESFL
Procedure: The Cv5-HT7-expressing cell line was also used to determine receptor-induced cAMP production in response to various biogenic amines directly. Assays to quantify cAMP amounts were performed as described earlier by using the cAMP-Screen System (Applied Biosystems, Darmstadt, Germany).

Cv5-HT2α [2] = target: T2, Cv5-HT2α (Calliphora vicina, UniProt I7JA47); test: Ca2+ signals (Fluo-4) in Cv5-HT2α-expressing HEK 293 cells, agonists; type: cell-based; conditions: for effect on [Ca2+]i in Cv5-HT2α-expressing cells: 1 µM biogenic amine, non-transfected cells as control; for pEC50 / Cv5-HT2α EC50 / Cv5-HT2α log EC50: Cv5-HT2α-expressing HEK 293 cells; for Cv5-HT2α EC50 / Cv5-HT2α log EC50: Ca2+-dependent Fluo-4 signal
T2 sequence (I7JA47 entry or part of it): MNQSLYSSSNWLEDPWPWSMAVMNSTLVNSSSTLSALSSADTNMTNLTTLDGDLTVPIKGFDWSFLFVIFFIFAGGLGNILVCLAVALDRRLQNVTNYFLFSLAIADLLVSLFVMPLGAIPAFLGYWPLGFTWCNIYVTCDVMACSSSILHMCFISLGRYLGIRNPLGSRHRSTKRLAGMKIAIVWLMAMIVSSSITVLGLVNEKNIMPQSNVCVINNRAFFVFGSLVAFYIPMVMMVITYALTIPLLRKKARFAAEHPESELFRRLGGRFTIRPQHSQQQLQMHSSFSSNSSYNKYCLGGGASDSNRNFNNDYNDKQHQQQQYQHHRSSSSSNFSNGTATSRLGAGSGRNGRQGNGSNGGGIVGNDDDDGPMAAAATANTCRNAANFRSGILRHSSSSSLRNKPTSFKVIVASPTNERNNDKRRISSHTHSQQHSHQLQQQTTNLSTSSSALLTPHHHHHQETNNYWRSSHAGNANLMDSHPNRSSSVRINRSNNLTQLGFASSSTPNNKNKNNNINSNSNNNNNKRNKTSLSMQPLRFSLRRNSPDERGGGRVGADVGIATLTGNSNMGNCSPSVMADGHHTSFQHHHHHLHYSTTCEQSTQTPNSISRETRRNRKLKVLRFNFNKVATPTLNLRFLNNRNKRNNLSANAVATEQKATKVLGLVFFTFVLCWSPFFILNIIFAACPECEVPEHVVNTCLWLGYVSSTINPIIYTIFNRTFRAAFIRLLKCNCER
Procedure: (§1) We applied a previously established protocol to generate cell lines that constitutively expressed either Cv5-HT2α or Cv5-HT7. […] (flpTM cells, provided by Sibion biosciences GmbH, Jülich, Germany). Approximately 8 µg of the respective expression vectors were introduced into ∼4×10^5 cells by a modified calcium-phosphate method. Stably transfected cells were selected in the presence of the antibiotics Blasticidin (0.1 mg/ml; Cv5-HT2α) or G418 (0.8 mg/ml; Cv5-HT7). Expression of Cv5-HT2α and Cv5-HT7 was monitored by Western blotting with commercially available anti-His antibodies (anti-6x His Epitope Tag; Rockland Immunochemicals Inc, Gilbertsville, USA) and anti-HA antibodies (clone 3F10; Roche, Penzberg, Germany), respectively.
(§2) The ability of Cv5-HT2α to induce Ca^2+ signals in the transfected cell line was measured with the Ca^2+-sensitive dye Fluo-4. Similarly, Cv5-HT7-induced cAMP production was indirectly monitored by the cAMP-dependent activation of the cyclic nucleotide-gated ion channel in flpTM cells (see above). The cyclic nucleotide-gated ion channel is permeable to Ca^2+ ions and thus an increase in [cAMP]i leads to an influx of Ca^2+ ions, which can be detected with Fluo-4. […] After 1 h, the loading solution was substituted for dye-free ES. To inhibit cAMP hydrolysis in Cv5-HT7-expressing cells, ES containing 100 µM isobutylmethylxanthine (IBMX) was used. Plates were transferred into a fluorescence reader (FLUOstar Omega; bmg, Offenburg, Germany) and Fluo-4 fluorescence was monitored. […] Fluorescence emission was detected at 520 nm. Once the basal fluorescence in each well had reached a stable value, various concentrations of the respective ligands were added. The resulting changes in Fluo-4 fluorescence were recorded automatically.

Cv5-HT7 [3] = target: T1, Cv5-HT7; test: cAMP-dependent CNG channel Ca2+ influx (Fluo-4) in Cv5-HT7-expressing flpTM cells, agonists; type: cell-based
Procedure: as §1, §2

blowfly salivary glands [4] = test: Transepithelial potential (TEP) of blowfly salivary glands, agonists; type: cell-based, Calliphora vicina; design: key to negative TEP phase / positive TEP phase: ++: high amplitude; +: low amplitude; -: no apparent effect; -/+: variable effect
Procedure: The abdominal portions of salivary glands were dissected in physiological saline (in mM: 128 NaCl, 10 KCl, 2 CaCl2, 2.7 MgCl2, 3 Na-glutamate, 2.8 maleic acid, 10 D-glucose and 10 Tris-HCl, pH 7.2). Measurements of transepithelial potential (TEP) were performed by the oil-gap method with a DPA-2F differential amplifier (npi Electronic Instruments, Tamm, Germany). Data were sampled and digitized at 1 Hz (KUSB-3102 module for AD-conversion; Keithley, Germering, Germany) by using the software TestPoint (v4.1; Capital Equipment Corp, Billerica, MA, USA) for data acquisition and storage.

blowfly salivary glands [5] = tested on: blowfly salivary glands; design: method as in PMID 6272697, PMID 4339528, PMID 16621952; conditions: cAMP formation, electrical response, luminal acidification and fluid secretion; read-out: 5-HT concentration eliciting the half-maximal effect in blowfly salivary glands; cited from earlier work
salivary glands = tested on: salivary glands; design: method as in PMID 9097929; conditions: read-out: EC50 of Ca2+ responses in salivary glands; cited from earlier work
Cv5-HT7 [6] = target: T1, Cv5-HT7; test: Inhibition of 5-HT-induced Fluo-4 signals in Cv5-HT7-expressing cells; type: cell-based; conditions: in the presence of 6 nM 5-HT
Procedure: as §1, with “Cv5-HT7. For Cv5-HT2α expression, human embryonic kidney cells (HEK 293; ECACC, Salisbury, UK) were chosen.” for “Cv5-HT7.”
(§3) The ability of Cv5-HT2α to induce Ca^2+ signals in the transfected cell line was measured with the Ca^2+-sensitive dye Fluo-4. Similarly, Cv5-HT7-induced cAMP production was indirectly monitored by the cAMP-dependent activation of the cyclic nucleotide-gated ion channel in flpTM cells (see above). The cyclic nucleotide-gated ion channel is permeable to Ca^2+ ions and thus an increase in [cAMP]i leads to an influx of Ca^2+ ions, which can be detected with Fluo-4. Cells were grown in 96-well plates to a density of ∼3×10^4 (Cv5-HT2α) or 1.5×10^4 (Cv5-HT7) and then incubated in extracellular solution (ES in mM: 120 NaCl, 5 KCl, 2 CaCl2, 2 MgCl2, 10 glucose, 10 HEPES, pH 7.4) containing 3 mM probenecid, 0.02% (w/v) Pluronic® F-127 (Sigma) and 2 µM Fluo-4AM (Invitrogen). After 1 h, the loading solution was substituted for dye-free ES. To inhibit cAMP hydrolysis in Cv5-HT7-expressing cells, ES containing 100 µM isobutylmethylxanthine (IBMX) was used. Plates were transferred into a fluorescence reader (FLUOstar Omega; bmg, Offenburg, Germany) and Fluo-4 fluorescence was monitored. The excitation wavelength was 485 nm. Fluorescence emission was detected at 520 nm. Once the basal fluorescence in each well had reached a stable value, various concentrations of the respective ligands were added. The resulting changes in Fluo-4 fluorescence were recorded automatically.
(§4) Changes in Ca^2+-dependent Fluo-4 signals were registered automatically. Data represent the means±SD of eight replicates. […] Relative fluorescence (%) is normalized to the values obtained with 100 nM 5-HT in the absence of antagonists. […] Relative fluorescence (%) is normalized to the values obtained with 6 nM 5-HT in the absence of antagonists.

Cv5-HT2α [7] = target: T2, Cv5-HT2α; test: Inhibition of 5-HT-induced Ca2+ signals in Cv5-HT2α-expressing cells; type: cell-based
Procedure: as §1, with “Cv5-HT7. For Cv5-HT2α expression, human embryonic kidney cells (HEK 293; ECACC, Salisbury, UK) were chosen.” for “Cv5-HT7.”
as §3, §4

[8] = Cv5-HT2α EC50, Ca2+-dependent Fluo-4 signal
[9] = Cv5-HT2α log EC50, Ca2+-dependent Fluo-4 signal
[10] = Cv5-HT7 EC50, Fluo-4 signal, Cv5-HT7-expressing flpTM cells, 100 µM IBMX
[11] = Cv5-HT7 log EC50, Fluo-4 signal, Cv5-HT7-expressing flpTM cells, 100 µM IBMX
[12] = Fluo-4 signal, Cv5-HT7-expressing flpTM cells, 100 µM IBMX, read-out: Cv5-HT7 EC50
[13] = Fluo-4 signal, Cv5-HT7-expressing flpTM cells, 100 µM IBMX

## NCC(O)c1ccc(O)cc1 (stereo not shown) [octopamine]
Cv5-HT7 [1]
  effect on [cAMP]i in Cv5-HT7-expressing cells: only 5-HT led to a rise of [cAMP]i
Cv5-HT2α [2]
  effect on [Ca2+]i in Cv5-HT2α-expressing cells: only 5-HT led to an increase of [Ca^2+]i

## NCCc1ccc(O)cc1 [tyramine]
Cv5-HT7 [1]
  effect on [cAMP]i in Cv5-HT7-expressing cells: only 5-HT led to a rise of [cAMP]i
Cv5-HT2α [2]
  effect on [Ca2+]i in Cv5-HT2α-expressing cells: only 5-HT led to an increase of [Ca^2+]i

## NCCc1ccc(O)c(O)c1 [dopamine]
Cv5-HT7 [1]
  effect on [cAMP]i in Cv5-HT7-expressing cells: only 5-HT led to a rise of [cAMP]i
Cv5-HT2α [2]
  effect on [Ca2+]i in Cv5-HT2α-expressing cells: only 5-HT led to an increase of [Ca^2+]i

## COc1ccc2[nH]cc(CCN)c2c1 [5-MeOT, 5-methoxytryptamine]
Cv5-HT2α [2]; [8]
  pEC50: 7.17
Cv5-HT2α [2]; [9]
  pEC50: 7.17
Cv5-HT7 [3]; [10]
  pEC50: 6.02
Cv5-HT7 [3]; [11]
  pEC50: 6.02
Blowfly salivary glands [4]; 30 nM or 100 nM
  TEP change of salivary glands: only a negative-going TEP change
Blowfly salivary glands [4]; 0.03-0.1 µM
  negative TEP phase: ++
  positive TEP phase: -
  reversibility: yes
Blowfly salivary glands [4]; 1-100 µM
  negative TEP phase: ++
  positive TEP phase: +
  reversibility: yes
Blowfly salivary glands [4]; 1–100 µM
  TEP change of salivary glands: biphasic response

## NCCc1c[nH]c2ccc(O)cc12 [5-HT, 5-hydroxytryptamine]
Cv5-HT7 [1]
  effect on [cAMP]i in Cv5-HT7-expressing cells: rise of [cAMP]i
Cv5-HT2α [2]
  effect on [Ca2+]i in Cv5-HT2α-expressing cells: increase of [Ca^2+]i
Cv5-HT2α [2]; [8]
  pEC50: 7.62
Cv5-HT2α [2]; [9]
  pEC50: 7.62
Blowfly salivary glands [5]
  pEC50: 8.22 to 9.00
Salivary glands
  pEC50: 8.55
Cv5-HT7 [3]; [12]
  pEC50: 8.40
Cv5-HT7 [3]; Fluo-4 signal, Cv5-HT7-expressing flpTM cells, 100 µM IBMX, read-out: Cv5-HT7 log EC50 (converted)
  EC50: 4.07 nM
Blowfly salivary glands [4]; 30 nM
  TEP change of salivary glands: characteristic biphasic change in the TEP

## CC[C@@H](CO)NC(=O)[C@@H]1C=C2c3cccc4c3c(cn4C)C[C@H]2N(C)C1 [methysergide]
Cv5-HT7 [6]
  Cv5-HT7 IC50: agonistic effect
  Cv5-HT7 log IC50: agonistic effect
Cv5-HT2α [2]
  Cv5-HT2α EC50: no effect
  Cv5-HT2α log EC50: no effect
Cv5-HT2α [7]; Cv5-HT2α IC50, in the presence of 100 nM 5-HT
  pIC50: 4.70
Cv5-HT2α [7]; Cv5-HT2α log IC50, in the presence of 100 nM 5-HT
  pIC50: 4.71
Cv5-HT7 [3]; [10]
  pEC50: 6.11
Cv5-HT7 [3]; [11]
  pEC50: 6.11
Blowfly salivary glands [4]; 3 µM
  TEP change of salivary glands: complex biphasic TEP responses
  negative TEP phase: +
  reversibility: yes

## Cc1nn(C)c(C)c1-c1cccc2c1CC[C@H](N(C)C)C2 [AS 19, (2S)-(+)-5-(1,3,5-Trimethylpyrazol-4-yl)-2-(dimethylamino)tetralin]
Cv5-HT2α [2]
  Cv5-HT2α EC50: no effect
  Cv5-HT2α log EC50: no effect
Cv5-HT7 [3]; [13]
  Cv5-HT7 log EC50: −6.52±0.04
Cv5-HT7 [3]; [12]
  pEC50: 6.52
Blowfly salivary glands [4]; 100 µM
  negative TEP phase: -
  positive TEP phase: -/+
  reversibility: yes
Blowfly salivary glands [4]; 1–100 µM
  TEP change of salivary glands: only positive-going changes in the TEP

## CCN(CC)C(=O)N[C@H]1C=C2c3cccc4[nH]cc(c34)C[C@H]2N(C)C1 [R(+)-lisuride]
Cv5-HT2α [2]
  Cv5-HT2α EC50: no effect
  Cv5-HT2α log EC50: no effect
Cv5-HT7 [3]; [13]
  Cv5-HT7 log EC50: −8.75±0.05
Cv5-HT7 [3]; [12]
  pEC50: 8.70
Cv5-HT7 [3]; highest agonist concentrations, normalized to 5-HT maximum
  efficacy at Cv5-HT7 compared to 5-HT: very low efficacy
Blowfly salivary glands [4]; 30 nM
  TEP change of salivary glands: irreversible positive-going TEP change
Blowfly salivary glands [4]; 0.03-0.3 µM
  negative TEP phase: -
  positive TEP phase: ++
  reversibility: no (within 20 min)
